Values of other authors in patent publication US10143669B2, “Use of short chain fatty acids in cancer prevention” (Temple University-Of The Commonwealth System of Higher …, priority 2015, dated 2018).

Experiments:
HBx transgenic mice = details: Arzumanyan A et al., Cancer Res, 2012
established tumor = details: Bindels L B et al., Br J Cancer, 2012
[1] = test system: Hepatocellular carcinoma (HCC); details: Peck-Radosavljevic M, Liver Cancer, 2014

## CS(=O)(=O)c1ccc(C(=O)Nc2ccc(Cl)c(-c3ccccn3)c2)c(Cl)c1 [GDC-0449]
HBx transgenic mice
  number and size of tumors in HBx transgenic mice: decreased the number and size of tumors

## CCC(=O)O [proprionate]
Established tumor
  growth of an established tumor: reduce the growth

## CNC(=O)c1cc(Oc2ccc(NC(=O)Nc3ccc(Cl)c(C(F)(F)F)c3)cc2)ccn1 [sorafenib]
[1]
  life expectancy extended, average: 3 months
